Reference: ChEMBL document CHEMBL1136913, “Stereoselective synthesis and biological evaluations of novel 3'-deoxy-4'-azaribonucleosides as inhibitors of hepatitis C virus RNA replication” (J Med Chem, 2009)

How the values were obtained:
Hepatitis C virus = assay: Antiviral activity against HCV infected in human HBI10A cells assessed as inhibition of viral-NS3 expression by ELISA; type: functional, organism-based, Hepacivirus hominis
[1] = Cytotoxicity against human HBI10A cells after 20 hrs by MTS assay; type: cell-based
[2] = Selectivity index, ratio of CC50 for human HBI10A cells to IC50 for HCV; type: functional

Structure (SMILES) | IC50 (Hepatitis C virus) | CC50 at 20 h [1] | Ratio CC50/IC50 [2]
CC(C)(C)OC(=O)N1[C@H](CO)C[C@@H](O)[C@@H]1n1cc(F)c(=O)[nH]c1=O | 0.00035 µM | 623 µM | 
CCOC(=O)N1[C@H](CO)C[C@@H](O)[C@@H]1n1cc(F)c(=O)[nH]c1=O | 4.8 µM | > 1000 µM | >=208
CCOC(=O)N1[C@H](CO)C[C@@H](O)[C@H]1n1cc(F)c(=O)[nH]c1=O | > 1000 µM | 200 µM | 
CC(C)(C)OC(=O)N1[C@H](CO)C[C@@H](O)[C@@H]1n1ccc(=O)[nH]c1=O | 40.6 µM | > 1000 µM | 
Cc1cn([C@H]2[C@H](O)C[C@@H](CO)N2C(=O)OC(C)(C)C)c(=O)[nH]c1=O | 0.018 µM | > 1000 µM | 
CC(C)(C)OC(=O)N1[C@H](CO)C[C@@H](O)[C@@H]1n1ccc(N)nc1=O | 96 µM | > 1000 µM | 
